# Experimental data as given in patent US4684664A, “Derivatives of β-(4-isocyano-1,2,3,4-diepoxycyclopentyl) acrylic acid” (Kureha Kagaku Kogyo Kabushiki Kaisha, priority 1984, dated 1987).
# Assays:
# Assay type in all cases: cell-based
# [1] = tested on: Pseudomonas aeruginosa NCTC 10490; assay: Antibacterial activity, agar-dilution MIC, organism No. 16; conditions: Pseudomonas aeruginosa, NCTC10490; Organism No. 16, bouillon-agar; read-out: Minimum Inhibitory Concentration
# Summary of the method: (§1)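 Read-out is the minimum inhibitory concentration, given as μg/ml of the culture medium, obtained by agar dilution using bouillon agar.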
# [2] = tested on: Salmonella paratyphi-A 1015; assay: Antibacterial activity, agar-dilution MIC, organism No. 10; conditions: Salmonella enterica, PARATYPHI, read-out: Minimum Inhibitory Concentration
# Summary of the method: as §1
# [3] = tested on: Bacillus subtilis ATCC 6633; assay: Antibacterial activity, agar-dilution MIC, organism No. 14; conditions: Bacillus subtilis, ATCC6633; Organism No. 14, bouillon-agar; read-out: Minimum Inhibitory Concentration
# Summary of the method: as §1
# [4] = tested on: Staphylococcus aureus MS 353; assay: Antibacterial activity, agar-dilution MIC, organism No. 3; conditions: Staphylococcus aureus, MS353; Organism No. 3, bouillon-agar; read-out: Minimum Inhibitory Concentration
# Summary of the method: as §1
# [5] = tested on: Salmonella shottmuelleri 8006; assay: Antibacterial activity, agar-dilution MIC, organism No. 11; conditions: Salmonella, 8006; Organism No. 11, bouillon-agar; read-out: Minimum Inhibitory Concentration
# Summary of the method: as §1
# [6] = tested on: Pseudomonas aeruginosa PAO 1; assay: Antibacterial activity, agar-dilution MIC, organism No. 17; conditions: Pseudomonas aeruginosa, PAO1; Organism No. 17, bouillon-agar; read-out: Minimum Inhibitory Concentration
# Summary of the method: as §1
# [7] = tested on: Salmonella enteritidis G 14; assay: Antibacterial activity, agar-dilution MIC, organism No. 12; conditions: Salmonella enterica, ENTERITIDIS; Organism No. 12, bouillon-agar; read-out: Minimum Inhibitory Concentration
# Summary of the method: as §1
# [8] = tested on: Escherichia coli NIHJ-JC-2; assay: Antibacterial activity, agar-dilution MIC, organism No. 5; conditions: Escherichia coli, NIHJJC2; Organism No. 5, bouillon-agar; read-out: Minimum Inhibitory Concentration
# Summary of the method: as §1
# [9] = tested on: Micrococcus luteus ATCC 9341; assay: Antibacterial activity, agar-dilution MIC, organism No. 25; conditions: Micrococcus luteus, ATCC9341; Organism No. 25, bouillon-agar; read-out: Minimum Inhibitory Concentration
# Summary of the method: as §1
# [10] = tested on: Aspergillus niger IFO 6342; assay: Antifungal activity, agar-dilution MIC, organism No. 30; conditions: Aspergillus niger, IFO6342; Organism No. 30, bouillon-agar; read-out: Minimum Inhibitory Concentration
# Summary of the method: as §1
# [11] = tested on: Salmonella typhimurium IID 971; assay: Antibacterial activity, agar-dilution MIC, organism No. 8; conditions: Salmonella enterica; Organism No. 8, bouillon-agar; read-out: Minimum Inhibitory Concentration
# Summary of the method: as §1
# [12] = tested on: Pseudomonas aeruginosa IFO 3445; assay: Antibacterial activity, agar-dilution MIC, organism No. 15; conditions: Pseudomonas aeruginosa, IFO3445; Organism No. 15, bouillon-agar; read-out: Minimum Inhibitory Concentration
# Summary of the method: as §1
# [13] = tested on: Proteus rettgeri IFO 3850; assay: Antibacterial activity, agar-dilution MIC, organism No. 22; conditions: Providencia rettgeri, IFO3850; Organism No. 22, bouillon-agar; read-out: Minimum Inhibitory Concentration
# Summary of the method: as §1
# [14] = tested on: Enterobacter aerogenes ATCC 13048; assay: Antibacterial activity, agar-dilution MIC, organism No. 23; conditions: Klebsiella aerogenes, ATCC13048; Organism No. 23, bouillon-agar; read-out: Minimum Inhibitory Concentration
# Summary of the method: as §1
# [15] = tested on: Staphylococcus aureus Terajima; assay: Antibacterial activity, agar-dilution MIC, organism No. 2; conditions: Staphylococcus aureus; Organism No. 2, bouillon-agar; read-out: Minimum Inhibitory Concentration
# Summary of the method: as §1
# [16] = tested on: Staphylococcus aureus FDA 209PJc-1; assay: Antibacterial activity, agar-dilution MIC, organism No. 1; conditions: Staphylococcus aureus, FDA209PJC1; Organism No. 1, bouillon-agar; read-out: Minimum Inhibitory Concentration
# Summary of the method: as §1
# [17] = tested on: Proteus mirabilis IFO 3849; assay: Antibacterial activity, agar-dilution MIC, organism No. 19; conditions: Proteus mirabilis, IFO3849; Organism No. 19, bouillon-agar; read-out: Minimum Inhibitory Concentration
# Summary of the method: as §1
# [18] = tested on: Streptococcus pyogenes Cook; assay: Antibacterial activity, agar-dilution MIC, organism No. 4; conditions: Streptococcus pyogenes; Organism No. 4, bouillon-agar; read-out: Minimum Inhibitory Concentration
# Summary of the method: as §1
# [19] = tested on: Enterobacter cloacae 963; assay: Antibacterial activity, agar-dilution MIC, organism No. 24; conditions: Enterobacter cloacae, 963; Organism No. 24, bouillon-agar; read-out: Minimum Inhibitory Concentration
# Summary of the method: as §1
# [20] = tested on: Escherichia coli K12 C600 IAM 1264; assay: Antibacterial activity, agar-dilution MIC, organism No. 6; conditions: Escherichia coli, IAM1264; Organism No. 6, bouillon-agar; read-out: Minimum Inhibitory Concentration
# Summary of the method: as §1
# [21] = tested on: Salmonella typhi 901; assay: Antibacterial activity, agar-dilution MIC, organism No. 9; conditions: Salmonella enterica, TYPHI, read-out: Minimum Inhibitory Concentration
# Summary of the method: as §1
# [22] = tested on: Proteus morganii IFO 3848; assay: Antibacterial activity, agar-dilution MIC, organism No. 18; conditions: Morganella morganii, IFO3848; Organism No. 18, bouillon-agar; read-out: Minimum Inhibitory Concentration
# Summary of the method: as §1
# [23] = tested on: Streptococcus pyogenes IFO 3340; assay: Antibacterial activity, agar-dilution MIC, organism No. 26; conditions: Streptococcus pyogenes, IFO3340; Organism No. 26, bouillon-agar; read-out: Minimum Inhibitory Concentration
# Summary of the method: as §1
# [24] = tested on: Proteus vulgaris HX-19; assay: Antibacterial activity, agar-dilution MIC, organism No. 21; conditions: Proteus vulgaris, HX19; Organism No. 21, bouillon-agar; read-out: Minimum Inhibitory Concentration
# Summary of the method: as §1
# [25] = tested on: Candida albicans IAM 4905; assay: Antifungal activity, agar-dilution MIC, organism No. 29; conditions: Candida albicans, IAM4905; Organism No. 29, bouillon-agar; read-out: Minimum Inhibitory Concentration
# Summary of the method: as §1
# [26] = tested on: Klebsiella pneumoniae PCI-602; assay: Antibacterial activity, agar-dilution MIC, organism No. 7; conditions: Klebsiella pneumoniae, PCI602; Organism No. 7, bouillon-agar; read-out: Minimum Inhibitory Concentration
# Summary of the method: as §1
# [27] = tested on: Mycoplasma pneumoniae IID817; assay: Antimycoplasmal activity, MIC by phenol red colour change, organism No. 28; conditions: Mycoplasma, IID817; Organism No. 28, PPLO broth + 1% glucose, 37° C.; read-out: Minimum Inhibitory Concentration (MIC)
# Protocol: Mycoplasma pneumoniae IID817 was used as the test microorganism in a culture medium prepared by adding 1% of glucose to "PPLO broth (manufactured by Difco Co.) liquid culture medium" at 37° C. with phenol red as an indicator, thereby culturing the test microorganism.
# [28] = tested on: Proteus vulgaris OX-19; assay: Antibacterial activity, agar-dilution MIC, organism No. 20; conditions: Proteus vulgaris, OX19; Organism No. 20, bouillon-agar; read-out: Minimum Inhibitory Concentration
# Summary of the method: as §1
# [29] = tested on: Serratia marcescens IAM 1184; assay: Antibacterial activity, agar-dilution MIC, organism No. 13; conditions: Serratia marcescens, IAM1184; Organism No. 13, bouillon-agar; read-out: Minimum Inhibitory Concentration
# Summary of the method: as §1
# [30] = tested on: Streptococcus faecium IFO 3826; assay: Antibacterial activity, agar-dilution MIC, organism No. 27; conditions: Enterococcus faecium, IFO3826; Organism No. 27, bouillon-agar; read-out: Minimum Inhibitory Concentration
# Summary of the method: as §1
smiles,measurement,setting,value
[C-]#[N+]C12CC3(/C=C/C(=O)Nc4ccc(C(=O)c5ccccc5)cc4)OC3C1O2 (stereo not drawn) [compound 79],MIC,[1],> 200 µg/mL
same,MIC,[2],3.13 µg/mL
same,MIC,[3],1.56 µg/mL
same,MIC,[4],0.39 µg/mL
same,MIC,[5],6.25 µg/mL
same,MIC,[6],> 200 µg/mL
same,MIC,[7],> 200 µg/mL
same,MIC,[8],> 200 µg/mL
same,MIC,[9],> 200 µg/mL
same,MIC,[10],3.13 µg/mL
same,MIC,[11],> 200 µg/mL
same,MIC,[12],> 200 µg/mL
same,MIC,[13],> 200 µg/mL
same,MIC,[14],> 200 µg/mL
same,MIC,[15],0.78 µg/mL
same,MIC,[16],0.39 µg/mL
same,MIC,[17],> 200 µg/mL
same,MIC,[18],3.13 µg/mL
same,MIC,[19],> 200 µg/mL
same,MIC,[20],> 200 µg/mL
same,MIC,[21],200 µg/mL
same,MIC,[22],6.25 µg/mL
same,MIC,[23],0.78 µg/mL
same,MIC,[24],1.56 µg/mL
same,MIC,[25],0.39 µg/mL
same,MIC,[26],3.13 µg/mL
same,MIC,[27],< 0.2 µg/mL
same,MIC,[28],1.56 µg/mL
same,MIC,[29],> 200 µg/mL
same,MIC,[30],0.78 µg/mL
